Some test systems named below: A498 renal; ACHN renal; DU-145 prostate; M14 melanoma; MCF7 breast; NCI-H226 lung; NCI-H460 lung; NCI-H522 lung; NCI/ADR-RES ovarian; OVCAR-5 ovarian; SF-268 CNS; SF-539 CNS; SN12C renal; SR leukemia; SW-620 colon; U251 CNS; UACC-62 melanoma; UO-31 renal; SNB-19 CNS; T-47D breast.
Experiment in all cases: NCI tumour cell line growth inhibition, 48 h

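Where inhibition never reached the appropriate level, the endpoint shown equals the highest concentration tested. Otherwise, values were interpolated linearly from a five-concentration, 48-hour dose response in 96-well plates. TGI is the concentration that stops growth completely.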 Bounds are passed on as bounds.

Take `CCOC(=O)C1OC(C2(C)OC3(OC4(C=CC3O)OC(C(C)C(=O)C(C)C(O)C(C)CC(C)c3c(Cl)cc(C)c(O)c3C(=O)O)C(C)CC4C)C(C)C2OC)CC1O` (stereo not drawn): the TGI worked out at 2.51 µM in the assay on A498 renal; 6.78 µM in the assay on ACHN renal; 5.93 µM in the assay with DU-145 prostate; 6.38 µM in the assay with M14 melanoma; 23.1 µM with MCF7 breast; 1.84 µM in the assay with NCI-H226 lung. In addition, the TGI turned out to be 0.714 µM with NCI-H460 lung; 0.434 µM in the assay with NCI-H522 lung; 20.4 µM with NCI/ADR-RES ovarian; 21 µM with OVCAR-5 ovarian; 6.85 µM in the assay with SF-268 CNS; 7.51 µM in the assay on SF-539 CNS. In addition, the TGI in the assay on SN12C renal came out at 4.84 µM; in the assay on SR leukemia, 4.53 µM; in the assay on SW-620 colon it was 10.5 µM; with U251 CNS, 4.24 µM; in the assay on UACC-62 melanoma it was 1.25 µM; in the assay with UO-31 renal, 3.95 µM.
With `CN1CCC(CN2c3ccccc3Sc3ccccc32)CC1`, the TGI in the assay on A498 renal stood at 29 µM; with ACHN renal, 29.7 µM; in the assay on M14 melanoma, 26 µM; in the assay on NCI-H226 lung, 28.8 µM; in the assay with NCI-H460 lung, 28.5 µM; in the assay on NCI-H522 lung it was 28.3 µM. For the same compound, the TGI in the assay with OVCAR-5 ovarian is 33.5 µM; in the assay with SF-268 CNS, 29 µM; in the assay with SF-539 CNS, 28.5 µM; in the assay on SN12C renal it was 33.9 µM; with SNB-19 CNS, 29.3 µM; in the assay with SR leukemia, 33.3 µM. In addition, the TGI was determined as 28.6 µM with SW-620 colon, 29.2 µM with U251 CNS, 28.2 µM in the assay on UACC-62 melanoma and 21.8 µM in the assay on UO-31 renal.
For `CN1C(=O)[C@@H]2[C@@H]3c4ccccc4N(S(=O)(=O)C(F)(F)F)[C@@H]3c3[nH]c4ccccc4c3[C@@H]2C1=O`, the TGI in the assay on A498 renal, in the assay on ACHN renal, with DU-145 prostate, with MCF7 breast, in the assay on NCI-H226 lung and in the assay on NCI-H460 lung was > 100 µM each time. The TGI with NCI/ADR-RES ovarian, in the assay with OVCAR-5 ovarian, with SF-268 CNS, in the assay with SF-539 CNS, in the assay on SN12C renal and in the assay on SNB-19 CNS was > 100 µM throughout. Further, the TGI in the assay on SR leukemia was 43 µM; in the assay on SW-620 colon, > 100 µM; in the assay on U251 CNS it was > 100 µM; in the assay with UACC-62 melanoma it was > 100 µM; with UO-31 renal, > 100 µM.
Consider `Cc1cccnc1/N=C/c1c(O)n(C)c(=O)[nH]c1=O`, for which the TGI in the assay with A498 renal, in the assay with ACHN renal, in the assay on DU-145 prostate, with M14 melanoma, in the assay on MCF7 breast and in the assay on NCI-H226 lung was > 100 µM throughout. The TGI in the assay with NCI-H460 lung, in the assay on NCI-H522 lung, in the assay with OVCAR-5 ovarian, in the assay on SF-268 CNS, in the assay with SF-539 CNS and in the assay with SN12C renal was > 100 µM in each case. In addition, the TGI in the assay on SNB-19 CNS, in the assay with SW-620 colon, in the assay on T-47D breast, with U251 CNS, in the assay on UACC-62 melanoma and in the assay with UO-31 renal was > 100 µM throughout.
Regarding `NC1CC2NC3CCCCC3NC2CC1N` (stereo not drawn), the TGI in the assay on A498 renal was 79.4 µM; with ACHN renal it was > 100 µM; in the assay with DU-145 prostate, > 100 µM; in the assay on M14 melanoma, > 100 µM; in the assay on MCF7 breast, > 100 µM; in the assay on NCI-H226 lung it was > 100 µM. Further, the TGI was > 100 µM in the assay on NCI-H460 lung; 39.9 µM with NCI-H522 lung; > 100 µM in the assay on NCI/ADR-RES ovarian; > 100 µM in the assay on OVCAR-5 ovarian; > 100 µM in the assay with SF-268 CNS; > 100 µM in the assay with SF-539 CNS. For the same compound, the TGI in the assay on SN12C renal, in the assay on SNB-19 CNS, in the assay on SR leukemia, in the assay on SW-620 colon, with U251 CNS and with UACC-62 melanoma was > 100 µM each time. Further, in the assay on UO-31 renal, the TGI is > 100 µM.
For `C=C(Br)N(CC)CC`, the TGI in the assay with A498 renal, with ACHN renal, in the assay on M14 melanoma, in the assay on NCI-H226 lung, in the assay with NCI-H460 lung and in the assay with NCI-H522 lung was > 100 µM throughout. The TGI in the assay on OVCAR-5 ovarian, with SF-268 CNS, in the assay on SF-539 CNS, with SN12C renal, with SNB-19 CNS and in the assay with SR leukemia was > 100 µM each time. For the same compound, the TGI in the assay with SW-620 colon, in the assay with U251 CNS, in the assay with UACC-62 melanoma and in the assay with UO-31 renal was > 100 µM each time.
As to `COc1ccc(/C=c2\sc3n(c2=O)C(N)=C(C#N)C(c2ccc(OC)cc2)C=3c2nc3ccccc3[nH]2)cc1` (stereo not drawn), the TGI in the assay on A498 renal was > 100 µM; with ACHN renal, > 100 µM; in the assay on M14 melanoma, > 100 µM; with NCI-H226 lung, 49.2 µM; in the assay with NCI-H460 lung it was 40.9 µM; in the assay with NCI-H522 lung it was > 100 µM. The TGI in the assay with OVCAR-5 ovarian was 67.5 µM; in the assay with SF-268 CNS, > 100 µM; with SN12C renal, > 100 µM; with SNB-19 CNS, > 100 µM; in the assay with SR leukemia, > 100 µM; in the assay on SW-620 colon, 83.6 µM. Besides, the TGI in the assay on U251 CNS is 34.4 µM; in the assay on UACC-62 melanoma, > 100 µM; with UO-31 renal, > 100 µM.
Turning to `N#C/C(=C\c1cc(Cl)cc(Cl)c1)c1ccccn1`, the TGI in the assay on A498 renal was 8.25 µM; in the assay with ACHN renal it was > 100 µM; with DU-145 prostate it was > 100 µM; in the assay with M14 melanoma it was > 100 µM; in the assay on MCF7 breast, > 100 µM; in the assay with NCI-H226 lung it was 85.7 µM. The TGI in the assay on NCI-H460 lung, in the assay with NCI-H522 lung, in the assay on NCI/ADR-RES ovarian, with OVCAR-5 ovarian, in the assay on SF-268 CNS and with SF-539 CNS was > 100 µM in each case. In addition, the TGI in the assay on SN12C renal, with SNB-19 CNS, with SR leukemia, with SW-620 colon, in the assay with U251 CNS and in the assay with UACC-62 melanoma was > 100 µM each time. Further, in the assay on UO-31 renal, the TGI was > 100 µM.
Consider `CC1OC2(CC(OCc3ccccc3)C1OCc1ccccc1)OCCO2` (stereo not drawn), for which the TGI in the assay with A498 renal, in the assay with ACHN renal, in the assay on DU-145 prostate, in the assay with M14 melanoma, in the assay on MCF7 breast and with NCI-H226 lung was > 100 µM in each case. In addition, the TGI in the assay on NCI-H460 lung, in the assay with NCI-H522 lung, with NCI/ADR-RES ovarian, with OVCAR-5 ovarian, with SF-268 CNS and in the assay with SF-539 CNS was > 100 µM each time. The TGI in the assay on SN12C renal, in the assay with SNB-19 CNS, in the assay with SR leukemia, with SW-620 colon, in the assay with U251 CNS and with UACC-62 melanoma was > 100 µM throughout. Also, the TGI in the assay on UO-31 renal was > 100 µM.
`CCC1CN2CCc3c([nH]c4ccccc34)C2C[C@@H]1CC(=O)N(C)C` (stereo partly drawn): the TGI in the assay on A498 renal, in the assay on ACHN renal, in the assay with M14 melanoma, in the assay with NCI-H226 lung, with NCI-H460 lung and in the assay on NCI-H522 lung was > 100 µM throughout. Further, the TGI with OVCAR-5 ovarian, in the assay with SF-268 CNS, in the assay on SF-539 CNS, in the assay on SN12C renal, in the assay on SNB-19 CNS and with SR leukemia was > 100 µM throughout. Besides, the TGI in the assay with SW-620 colon, in the assay on U251 CNS and in the assay on UO-31 renal was > 100 µM each time.
Turning to `Cn1/c(=N\S(=O)(=O)c2ccccc2)n(S(=O)(=O)c2ccccc2)c2ccccc21`, the TGI in the assay on A498 renal, in the assay with ACHN renal, in the assay with DU-145 prostate, in the assay with M14 melanoma, in the assay with NCI-H226 lung and in the assay with NCI-H522 lung was > 100 µM throughout. Also, the TGI in the assay on NCI/ADR-RES ovarian, with OVCAR-5 ovarian, in the assay on SF-268 CNS, in the assay with SN12C renal, in the assay on SNB-19 CNS and in the assay with SW-620 colon was > 100 µM each time. In addition, the TGI in the assay with T-47D breast, with U251 CNS, with UACC-62 melanoma and in the assay with UO-31 renal was > 100 µM each time.
With `N=c1c2c(-c3ccccc3)c[nH]c2ncn1N`, the TGI with A498 renal, in the assay with ACHN renal, in the assay on M14 melanoma, in the assay with MCF7 breast, with NCI-H226 lung and in the assay with NCI-H522 lung was > 100 µM throughout. The TGI in the assay on NCI/ADR-RES ovarian, with OVCAR-5 ovarian, in the assay with SF-539 CNS, with SN12C renal, with SNB-19 CNS and in the assay on SW-620 colon was > 100 µM throughout. In addition, the TGI in the assay with T-47D breast, in the assay on U251 CNS, with UACC-62 melanoma and with UO-31 renal was > 100 µM each time.
Regarding `Cc1ccc(S(=O)(=O)OCC23CCC(CC2)C2CC23)cc1` (stereo not drawn), the TGI with A498 renal, in the assay on ACHN renal, with M14 melanoma, in the assay with NCI-H226 lung, with NCI-H460 lung and in the assay on OVCAR-5 ovarian was > 100 µM each time. Also, the TGI in the assay with SF-268 CNS, in the assay with SN12C renal, in the assay with SNB-19 CNS, with SR leukemia, with SW-620 colon and in the assay on U251 CNS was > 100 µM each time. Also, the TGI with UACC-62 melanoma and in the assay on UO-31 renal was > 100 µM each time.
